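Assay format: 96-well plates, 48-hour exposure. TGI: total growth inhibition.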
Assays:
Test in all cases: NCI tumour cell line growth inhibition, 48 h
OVCAR-4 ovarian = test system: OVCAR-4 ovarian
K-562 leukemia = test system: K-562 leukemia
PC-3 prostate = test system: PC-3 prostate
SF-539 CNS = test system: SF-539 CNS
A549 NSCLC = test system: A549 NSCLC
NCI/ADR-RES ovarian = test system: NCI/ADR-RES ovarian
KM12 colon = test system: KM12 colon
OVCAR-8 ovarian = test system: OVCAR-8 ovarian
SR leukemia = test system: SR leukemia
MDA-MB-231 breast = test system: MDA-MB-231 breast
SK-MEL-28 melanoma = test system: SK-MEL-28 melanoma
786-0 renal = test system: 786-0 renal
HCC-2998 colon = test system: HCC-2998 colon
A498 renal = test system: A498 renal
NCI-H522 lung = test system: NCI-H522 lung
NCI-H226 lung = test system: NCI-H226 lung
UO-31 renal = test system: UO-31 renal
COLO 205 colon = test system: COLO 205 colon
SW-620 colon = test system: SW-620 colon
NCI-H23 lung = test system: NCI-H23 lung
MCF7 breast = test system: MCF7 breast
T-47D breast = test system: T-47D breast
HL-60(TB) leukemia = test system: HL-60(TB) leukemia
RPMI-8226 leukemia = test system: RPMI-8226 leukemia
HCT-116 colon = test system: HCT-116 colon
UACC-62 melanoma = test system: UACC-62 melanoma
MOLT-4 leukemia = test system: MOLT-4 leukemia
U251 CNS = test system: U251 CNS
SK-OV-3 ovarian = test system: SK-OV-3 ovarian
SNB-75 CNS = test system: SNB-75 CNS
TK-10 renal = test system: TK-10 renal
HS 578T breast = test system: HS 578T breast
SF-268 CNS = test system: SF-268 CNS
HT29 colon = test system: HT29 colon
UACC-257 melanoma = test system: UACC-257 melanoma
IGROV1 ovarian = test system: IGROV1 ovarian
MDA-MB-435 = test system: MDA-MB-435
EKVX NSCLC = test system: EKVX NSCLC
CCRF-CEM leukemia = test system: CCRF-CEM leukemia
MALME-3M melanoma = test system: MALME-3M melanoma
CAKI-1 renal = test system: CAKI-1 renal
M14 melanoma = test system: M14 melanoma
RXF 393 renal = test system: RXF 393 renal
MDA-N = test system: MDA-N
OVCAR-3 ovarian = test system: OVCAR-3 ovarian
SK-MEL-2 melanoma = test system: SK-MEL-2 melanoma
ACHN renal = test system: ACHN renal
SK-MEL-5 melanoma = test system: SK-MEL-5 melanoma
SN12C renal = test system: SN12C renal
NCI-H460 lung = test system: NCI-H460 lung
DU-145 prostate = test system: DU-145 prostate
HCT-15 colon = test system: HCT-15 colon
HOP-62 NSCLC = test system: HOP-62 NSCLC
LOX IMVI melanoma = test system: LOX IMVI melanoma
SNB-19 CNS = test system: SNB-19 CNS
SF-295 CNS = test system: SF-295 CNS
HOP-92 NSCLC = test system: HOP-92 NSCLC
OVCAR-5 ovarian = test system: OVCAR-5 ovarian

CNC(=O)NCCN1CC2CCC(CC2)C1
TGI (OVCAR-4 ovarian): > 10 µM
TGI (K-562 leukemia): > 10 µM
TGI (PC-3 prostate): > 10 µM
TGI (SF-539 CNS): > 10 µM
TGI (A549 NSCLC): > 10 µM
TGI (NCI/ADR-RES ovarian): > 10 µM
TGI (KM12 colon): > 10 µM
TGI (OVCAR-8 ovarian): > 10 µM
TGI (SR leukemia): > 10 µM
TGI (MDA-MB-231 breast): > 10 µM
TGI (SK-MEL-28 melanoma): > 10 µM
TGI (786-0 renal): > 10 µM
TGI (HCC-2998 colon): > 10 µM
TGI (A498 renal): > 10 µM
TGI (NCI-H522 lung): > 10 µM
TGI (NCI-H226 lung): > 10 µM
TGI (UO-31 renal): > 10 µM
TGI (COLO 205 colon): > 10 µM
TGI (SW-620 colon): > 10 µM
TGI (NCI-H23 lung): > 10 µM
TGI (MCF7 breast): > 10 µM
TGI (T-47D breast): > 10 µM
TGI (HL-60(TB) leukemia): > 10 µM
TGI (RPMI-8226 leukemia): > 10 µM
TGI (HCT-116 colon): > 10 µM
TGI (UACC-62 melanoma): > 10 µM
TGI (MOLT-4 leukemia): > 10 µM
TGI (U251 CNS): > 10 µM
TGI (SK-OV-3 ovarian): > 10 µM
TGI (SNB-75 CNS): > 10 µM
TGI (TK-10 renal): > 10 µM
TGI (HS 578T breast): > 10 µM
TGI (SF-268 CNS): > 10 µM
TGI (HT29 colon): > 10 µM
TGI (UACC-257 melanoma): > 10 µM
TGI (IGROV1 ovarian): > 10 µM
TGI (MDA-MB-435): > 10 µM
TGI (EKVX NSCLC): > 10 µM
TGI (CCRF-CEM leukemia): > 10 µM
TGI (MALME-3M melanoma): > 10 µM
TGI (CAKI-1 renal): > 10 µM
TGI (M14 melanoma): > 10 µM
TGI (RXF 393 renal): > 10 µM
TGI (MDA-N): > 10 µM
TGI (OVCAR-3 ovarian): > 10 µM
TGI (SK-MEL-2 melanoma): > 10 µM
TGI (ACHN renal): > 10 µM
TGI (SK-MEL-5 melanoma): > 10 µM
TGI (SN12C renal): > 10 µM
TGI (NCI-H460 lung): > 10 µM
TGI (DU-145 prostate): > 10 µM
TGI (HCT-15 colon): > 10 µM
TGI (HOP-62 NSCLC): > 10 µM
TGI (LOX IMVI melanoma): > 10 µM
TGI (SNB-19 CNS): > 10 µM
TGI (SF-295 CNS): > 10 µM

CCSc1cc2c(cc1O)CC[C@@H]1[C@@H]2CC[C@]2(C)[C@@H](O)CC[C@@H]12
TGI (OVCAR-4 ovarian): 38.7 µM
TGI (K-562 leukemia): 21 µM
TGI (PC-3 prostate): 18.9 µM
TGI (SF-539 CNS): 34.3 µM
TGI (A549 NSCLC): 15.5 µM
TGI (NCI/ADR-RES ovarian): 26.9 µM
TGI (KM12 colon): 21.9 µM
TGI (OVCAR-8 ovarian): 38.5 µM
TGI (MDA-MB-231 breast): 18.8 µM
TGI (SK-MEL-28 melanoma): 28.9 µM
TGI (786-0 renal): 24.5 µM
TGI (HCC-2998 colon): 27.5 µM
TGI (A498 renal): 28.9 µM
TGI (NCI-H522 lung): 19.5 µM
TGI (NCI-H226 lung): 35.1 µM
TGI (UO-31 renal): 30.1 µM
TGI (COLO 205 colon): 32.3 µM
TGI (SW-620 colon): 13.2 µM
TGI (HOP-92 NSCLC): 24.3 µM
TGI (NCI-H23 lung): 44.3 µM
TGI (MCF7 breast): 27.5 µM
TGI (HL-60(TB) leukemia): > 100 µM
TGI (RPMI-8226 leukemia): > 100 µM
TGI (OVCAR-5 ovarian): 51.2 µM
TGI (HCT-116 colon): 32.7 µM
TGI (UACC-62 melanoma): 27.7 µM
TGI (MOLT-4 leukemia): 21.2 µM
TGI (U251 CNS): 25.2 µM
TGI (SK-OV-3 ovarian): 39.2 µM
TGI (SNB-75 CNS): 29.6 µM
TGI (TK-10 renal): 62.3 µM
TGI (HS 578T breast): 17.9 µM
TGI (SF-268 CNS): 55 µM
TGI (HT29 colon): 23 µM
TGI (UACC-257 melanoma): 30.2 µM
TGI (IGROV1 ovarian): 25 µM
TGI (MDA-MB-435): 10.4 µM
TGI (CCRF-CEM leukemia): 30.8 µM
TGI (MALME-3M melanoma): 23.8 µM
TGI (CAKI-1 renal): 26.4 µM
TGI (RXF 393 renal): 39.2 µM
TGI (MDA-N): 7.66 µM
TGI (SK-MEL-2 melanoma): 37.7 µM
TGI (ACHN renal): 24.9 µM
TGI (SK-MEL-5 melanoma): 22.7 µM
TGI (SN12C renal): 35.1 µM
TGI (NCI-H460 lung): 19.2 µM
TGI (DU-145 prostate): 74.9 µM
TGI (HCT-15 colon): 23.2 µM
TGI (HOP-62 NSCLC): 30.6 µM
TGI (LOX IMVI melanoma): 23 µM
TGI (SNB-19 CNS): 25.5 µM
